# Measured values as given in article PMC8791944, “GLUT3 inhibitor discovery through in silico ligand screening and in vivo validation in eukaryotic expression systems” (Scientific Reports, 2022).
# “And” between values parts separate entries of the source, which are not always exact repeats. Equal values may be shown once. “Also recorded” adds a separate entry of the source. Read-outs that look alike come from different tables or passages of the source.
# Target: T1, GLUT3S66Y (Homo sapiens, UniProt P11169, S66Y)
# T1 construct: expressed in transfected cells; host or cells: Saccharomyces cerevisiae hxt0 strain EBY.S7 (fgy1)
# T1 sequence (P11169 1-496 S66Y): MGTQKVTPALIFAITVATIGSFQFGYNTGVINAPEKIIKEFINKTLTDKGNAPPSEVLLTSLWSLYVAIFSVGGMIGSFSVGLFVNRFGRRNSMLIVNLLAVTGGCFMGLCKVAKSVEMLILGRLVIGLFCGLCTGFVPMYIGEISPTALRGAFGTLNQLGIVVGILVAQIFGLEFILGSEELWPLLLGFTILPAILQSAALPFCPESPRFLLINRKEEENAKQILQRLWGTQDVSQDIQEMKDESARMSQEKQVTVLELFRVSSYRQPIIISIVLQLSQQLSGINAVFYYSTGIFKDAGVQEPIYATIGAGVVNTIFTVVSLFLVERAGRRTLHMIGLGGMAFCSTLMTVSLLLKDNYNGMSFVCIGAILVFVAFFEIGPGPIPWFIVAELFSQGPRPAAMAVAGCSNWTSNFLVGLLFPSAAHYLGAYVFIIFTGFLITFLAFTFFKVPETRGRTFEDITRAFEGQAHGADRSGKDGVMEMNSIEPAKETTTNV
# Test: Glucose transport assay, GLUT3S66Y expressed in hxt^0 yeast cells EBY.S7
# Format: cell-based
# Conditions: for Inhibition mode in GLUT3: Dixon plots, versus glucose; for Ki: Ki for GLUT3 inhibition (Dixon plot), Dixon plots with GLUT3S66Y at 0.75, 1.50 and 3.00 mM glucose, competitive with glucose
# From the text: We determined GLUT3 transport activity by measuring the accumulation of radioactive glucose inside whole hxt^0 yeast cells (see “Materials and methods” for details). To select an appropriate substrate concentration for transport inhibition screening, we assessed the KM of glucose for GLUT3 in hxt^0 cells. […] Indeed, functional expression of human GLUTs in hxt^0 cells often requires mutations in genes related to yeast lipid composition[65],[73] as well as single-site mutations that may favor the outward-facing conformation of the transporters[65]–[67].
# The plasmids containing functional constructs of GLUT1-5 were transformed in the corresponding hxt^0 strains[65],[66],[73] (EBY.VW4000 for GLUT5S72Y, EBY.S7 for GLUT1, GLUT2∆loopS_Q455R, GLUT3 and GLUT3S66Y, and SDY.022 for GLUT4) and grown on 2% (w/v) agar plates of the respective media supplemented with 1% (w/v) maltose. An initial culture of ~ 10 ml was started with a few colonies and grown for 2–3 days if the media was SC-uracil with 1% (w/v) maltose (GLUT1, GLUT3, GLUT4) or 1–2 days if the media was YEP with 1% (w/v) maltose and 100 µg/ml geneticin G418 (GLUT2∆loopS_Q455R and GLUT5S72Y). Cells were washed once in the corresponding media in which maltose was substituted with 0.1–2% hexose substrate for the expressing GLUT (i.e., SC-uracil, 2% (w/v) glucose for GLUT1; SC-uracil, 0.2% (w/v/) glucose for GLUT3 and GLUT4; YEP, 0.2% (w/v) glucose, 100 µg/ml geneticin G418 for GLUT2∆loopS_Q455R, and YEP, 2% (w/v) fructose for GLUT5 S72Y). Then, cells were transferred in the same media so that OD600nm ~ 0.5 and grown further for 1–2 days.
# For transport activity assay, cells in the hexose media were centrifuged (1000×g, 5 min, room temperature), washed once with PBS buffer (10 mM Na2HPO4, 1.8 mM KH2PO4, 2.7 mM KCl, 137 mM NaCl, pH 7.4), and resuspended in PBS buffer at an OD600nm ~ 10; each assay contained 100 µl of this cell solution. Transport activity assay was started by adding C^14-hexose at a substrate concentration corresponding to the respective KM (5 mM glucose for GLUT1 or GLUT4, 3 mM glucose for GLUT3 or 1.5 mM glucose for GLUT3S66Y, 15 mM glucose for GLUT2∆loopS_Q455R, and 10 mM fructose for GLUT5S72Y); for determining the glucose KM in GLUT3 and GLUT3S66Y, substrate concentrations were varied accordingly. […] The filtration membranes were transferred into scintillation vials with 10 ml of Scintillation Solution (BioSafeII; Research Products International, Mount Prospect, IL, USA), and vortexed briefly. The radioactivity was determined with a scintillation counter (Tri-carb 2900TR, Perkin Elmer, USA). As all compounds were solubilized in dimethyl sulfoxide (DMSO), controls for determining the relative transport activity included 1% (v/v) DMSO to represent DMSO used as vehicle control (i.e., 100% activity), and known inhibitors at saturating concentrations, 200 µM phloretin for GLUT1-4[69],[82], and 100 µM N-[4-(methylsulfonyl)-2-nitrophenyl]-1,3-benzodioxol-5-amine (MSNBA) for GLUT5 (i.e., complete inhibition). […] Data were analyzed with GraphPad Prism (San Diego, CA, USA).
# Supplementary Figure S3. Dose response curves for G3iA-G3iF inhibition of GLUT3S66Y. […] Error bars represent standard deviations from at least three independent measurements. Graphs, data analysis, and IC50 values were generated with GraphPad (www.graphpad.com).
# Inhibition mode of G3iA, G3iC, and G3iE in GLUT3. (A-C) Dixon plots^2 for GLUT3S66Y inhibition by G3iA, G3iC, and G3iE, respectively.
SMILES,IC50,Inhibition mode in GLUT3,Inhibition mode in GLUT3 (listed as G2iA),Ki,IC50 (read-out: IC50 for GLUT3S66Y transport inhibition)
"CC(=O)Nc1ccc(S(=O)(=O)Nc2ccc(Nc3cc(N(C)C)nc(C)n3)cc2)cc1 [G3iA, N-(4-{[(4-{[6-(dimethylamino)-2-methylpyrimidin-4-yl]amino}phenyl)amino]sulfonyl}phenyl)acetamide]",6.21 ± 0.95 µM,competitive inhibition with glucose,competitive inhibition mode,3.49 µM and ~3.5 µM,–
"COc1ccccc1-n1c(/C=C/c2ccc(O)cc2)nc2ccc(Br)cc2c1=O [G3iB, 6-bromo-2-[(E)-2-(4-hydroxyphenyl)ethenyl]-3-(2-methoxyphenyl)quinazolin-4(3H)-one]",–,–,–,–,9.62 ± 1.17 µM
Cc1cccnc1OC1CCN(c2cc(N3CCCC3CO)ncn2)CC1 (stereo not shown) [G3iC],10.1 ± 2.1 µM,competitive inhibition with glucose; also recorded: competitive inhibition mode,–,5.83 ± 0.3 µM,–
Cc1cc(NC(=O)CCC2Cc3ccccc3NC2=O)nc(-c2ccccc2)n1 (stereo not shown) [G3iD],12.6 ± 1.6 µM,–,–,–,–
"O=C(Nc1cccc(Cl)c1)c1cccc(NC(=O)c2cccc([N+](=O)[O-])c2)c1 [G3iE, N-{3-[(3-chloroanilino)carbonyl]phenyl}-3-nitrobenzamide]",20.6 ± 2.4 µM,competitive inhibition with glucose; also recorded: competition with glucose; also recorded: competitive inhibition mode,–,12.3 ± 0.9 µM,–
Cc1ccccc1CN(Cc1nnc(C(C)(C)C)o1)c1ccc2nc(O)[nH]c2c1 [G3iF],24.8 ± 6 µM,–,–,–,–
